Experimental data taken from patent US11345695B2, “Substituted nicotinimide inhibitors of BTK and their preparation and use in the treatment of cancer, inflammation and autoimmune disease” (GUANGZHOU INNOCARE PHARMA TECH CO., LTD., priority 2013, dated 2022).

Target: BTK (Homo sapiens (Human), UniProt Q06187)
Assay: kinase-tagged phage / affinity bead competition binding screen (qPCR readout)
Details: BTK versus SRC

Sequence of BTK (Q06187 whole entry): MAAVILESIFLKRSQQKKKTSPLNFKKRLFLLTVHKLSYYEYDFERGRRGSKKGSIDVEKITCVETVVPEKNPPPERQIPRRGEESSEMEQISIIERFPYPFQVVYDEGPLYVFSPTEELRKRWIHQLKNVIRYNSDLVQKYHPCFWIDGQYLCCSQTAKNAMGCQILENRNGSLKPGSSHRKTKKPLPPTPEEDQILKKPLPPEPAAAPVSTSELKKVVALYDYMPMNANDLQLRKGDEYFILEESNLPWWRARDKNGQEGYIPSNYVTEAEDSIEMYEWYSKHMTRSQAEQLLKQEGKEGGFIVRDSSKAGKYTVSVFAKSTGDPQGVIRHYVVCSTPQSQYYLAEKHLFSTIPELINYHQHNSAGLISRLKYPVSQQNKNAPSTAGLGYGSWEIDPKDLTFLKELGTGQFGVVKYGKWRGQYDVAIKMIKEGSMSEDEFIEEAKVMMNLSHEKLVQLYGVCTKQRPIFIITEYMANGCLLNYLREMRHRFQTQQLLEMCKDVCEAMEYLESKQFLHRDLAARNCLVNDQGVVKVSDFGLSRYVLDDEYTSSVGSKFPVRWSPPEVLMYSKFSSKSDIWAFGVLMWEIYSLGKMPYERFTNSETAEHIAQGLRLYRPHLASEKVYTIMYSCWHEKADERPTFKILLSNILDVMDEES

- Fold Difference: >100x
Structure (SMILES): C=CC(=O)N1CCN(c2ccc(C(N)=O)c(-c3ccc(Oc4ccccc4)cc3)n2)CC1 [Example 5, 6-(4-acryloylpiperazin-1-yl)-2-(4-phenoxyphenyl)nicotinamide]
